Data on one compound can be found in paper PMC9747239, “State-selective modulation of heterotrimeric Gαs signaling with macrocyclic peptides” (Cell, 2022).

Where a SMILES comes first, the peptide text is derived from it. Bridges are numbered along the chain shown (N, C = ends). [ ]: non-standard residue; d: D form. A value given as a limit tells only on which side of the number the result lay.

One data set addresses T1, Gαs/GDP and Gβγ(C68S) (Homo sapiens, UniProt P63092).
T1 construct: hexahistidine (N, cleaved yes); made in house; host or cells: E. coli BL21(DE3) (Gαs); Sf9 insect cells (Gβ1γ2)
In words: FRET based Gαs/Gβγ interaction assay. It is filed as binding. Particulars: FRET, Gαs/GDP 4 nM, Gβ1/γ2(C68S) 2 nM; read-out: IC50, inhibition of Gαs/Gβγ interaction.

The next data set has as its target T2, Gαs (Homo sapiens, UniProt P63092).
T2 construct: vector His tag with thrombin/Drice site (removed); made in house; host or cells: E. coli BL21(DE3)
In words: Steady-state GTPase assay, Gαs short isoform. It is filed as biochemical. Particulars: read-out: IC50, inhibition of Gαs steady-state GTPase activity. The method, then: (§1) WT Gαs (both short and long) was diluted to a 6 μM stock (4X) in GTPase assay buffer (20 mM HEPES 7.5, 150 mM NaCl, 1 mM MgCl2). The protein was 1:1 (v/v) diluted with 4X cyclic peptide stock (0, 1.56, 3.12, 6.25, 12.5, 25, 50, 100 μM) in GTPase assay buffer, and incubated at 37°C for an hour. The samples were then 1:1 (v/v) diluted with reaction buffer (20 mM HEPES 7.5, 150 mM NaCl, 1 mM MgCl2, and 1 mM GTP) and incubated at 37°C. After 30, 50, 70, 90 min, 50 μL of the sample was removed to measure the inorganic phosphate (Pi) concentration by PiColorLock Phosphate Detection kit. A standard curve was made using the 0.1 mM Pi stock in the kit. Final [cyclic peptide]: 0, 0.39, 0.78, 1.56, 3.12, 6.25, 12.5, 25 μM; Final [Gαs]: 1.5 μM; Final [GTP]: 500 μM.

The next data set concerns the target T3, Gαs/GDP (Homo sapiens, UniProt P63092).
T3 construct: hexahistidine (N, cleaved yes); made in house; host or cells: E. coli BL21(DE3)
In words: Bio-layer interferometry (BLI), GDP-bound Gαs. Particulars: read-out: KD, binding to Gαs/GDP. Here is the method: BLI experiments were performed using an OctetRED384 instrument from ForteBio. All experiments were performed at 25°C using BLI buffer (10 mM HEPES pH 7.4, 150 mM NaCl, 1mM MgCl2, 0.05% Tween 20, 0.1% DMSO, 0.2 mM GNP or GDP). Cyclic peptides or Gα proteins were diluted to a series of concentrations (Final concentrations were indicated in Figures) in BLI buffer plus 10 μM Biotin. Assays were conducted in Greiner 384well, black, flat bottom polypropylene plates containing the protein solutions, BLI buffer plus 10 μM Biotin for dissociation, and serial dilutions of cyclic peptides to be tested.
Biotinylated proteins or cyclic peptides were immobilized on Streptavidin biosensors by dipping sensors into plate wells containing protein solutions at a concentration of 50–150 nM. Protein loading is around 2–3 nm. Cyclic peptide loading is around 0.2–0.3 nm. Sensors loaded with proteins or cyclic peptides were moved and dipped into wells with BLI buffer plus 10 μM Biotin to block unlabeled Streptavidin. […]
Raw kinetic data collected were processed with the Data Analysis software provided by the manufacturer using single reference subtraction in which buffer-only reference was subtracted (For GN13 analysis). […] The resulting data were analyzed based on a 1:1 binding model from which kon and koff values were obtained and then Kd values were calculated.

Another data set addresses T4, long isoform of Gαs (Homo sapiens, UniProt P63092).
T4 construct: made in house; host or cells: E. coli BL21(DE3)
In words: Steady-state GTPase assay, Gαs long isoform. It is filed as biochemical. The conditions noted are these: read-out: IC50, inhibition of steady-state GTPase activity of long isoform of Gαs. Here is the method: as §1

Data set [1] can be described thus: Chemical stability assay in DMEM with 10% FBS. It is filed as in vitro ADME. The conditions noted are these: bovine, DMEM with 10% FBS (fetal bovine serum), 37 °C, values represent 95% confidence intervals, read-out: Half-life (hour), chemical stability in DMEM with 10% FBS. The method, then:
(§2) These assays were conducted by Pharmaron Beijing CO., Ltd. Cyclic peptides working solutions were prepared at 10 μM in DMEM with 10% FBS (Avantor, Cat# 76,294–180) or human plasma (Pooled, Male & Female, BioIVT, Cat# HMN666664). The assays were performed in duplicate. Vials were incubated at 37 °C at 60 rpm in a water bath and taken at designated time points including 0, 480, 1080 and 1440 min. For each time point, the initiation of the reaction was staggered so all the time points were terminated with cold acetonitrile containing internal standards (IS, 100 nM alprazolam, 200 nM labetalol, 200 nM Imipramine and 2 μM ketoplofen) at the same time. Samples were vortexed then centrifuged at 4°C to remove proteins. The supernatants from centrifugation were diluted by ultra-pure H2O and used for LC-MS/MS analysis. All calculations were carried out using GraphPad Prism. Remaining percentages of parent compounds at each time point were estimated by determining the peak area ratios from extractedion chromatograms.

Another data set in a line: Plasma stability assay. It is filed as in vitro ADME. Particulars: both sexes, pooled human plasma, 37 °C, values represent 95% confidence intervals, read-out: Half-life (hour), plasma stability. The method, then:
as §2

T4 sequence (P63092 whole entry, canonical isoform): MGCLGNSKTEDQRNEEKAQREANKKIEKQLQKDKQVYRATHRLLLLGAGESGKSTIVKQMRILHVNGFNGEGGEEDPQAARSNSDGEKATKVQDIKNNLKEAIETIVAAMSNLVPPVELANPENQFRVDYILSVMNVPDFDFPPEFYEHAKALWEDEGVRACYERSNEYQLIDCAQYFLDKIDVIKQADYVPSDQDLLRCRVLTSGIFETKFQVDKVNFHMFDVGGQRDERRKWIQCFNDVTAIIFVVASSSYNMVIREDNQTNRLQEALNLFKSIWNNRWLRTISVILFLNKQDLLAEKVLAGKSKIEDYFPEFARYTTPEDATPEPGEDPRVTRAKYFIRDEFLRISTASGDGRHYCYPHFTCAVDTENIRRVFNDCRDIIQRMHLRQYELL
T1 sequence (P63092 with tags, fused parts or gaps isoform P63092-2): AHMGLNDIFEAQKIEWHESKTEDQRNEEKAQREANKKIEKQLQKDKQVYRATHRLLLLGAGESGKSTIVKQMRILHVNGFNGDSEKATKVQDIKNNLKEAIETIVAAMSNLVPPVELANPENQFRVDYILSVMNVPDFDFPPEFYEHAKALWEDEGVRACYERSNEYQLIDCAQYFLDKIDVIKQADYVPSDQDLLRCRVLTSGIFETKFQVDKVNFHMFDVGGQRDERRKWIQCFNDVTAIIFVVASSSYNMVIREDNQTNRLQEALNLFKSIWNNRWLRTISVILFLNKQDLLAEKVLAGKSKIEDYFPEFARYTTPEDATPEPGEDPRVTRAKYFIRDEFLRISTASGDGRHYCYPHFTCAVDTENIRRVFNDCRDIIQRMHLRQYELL
T2 sequence (P63092 with tags, fused parts or gaps isoform P63092-2): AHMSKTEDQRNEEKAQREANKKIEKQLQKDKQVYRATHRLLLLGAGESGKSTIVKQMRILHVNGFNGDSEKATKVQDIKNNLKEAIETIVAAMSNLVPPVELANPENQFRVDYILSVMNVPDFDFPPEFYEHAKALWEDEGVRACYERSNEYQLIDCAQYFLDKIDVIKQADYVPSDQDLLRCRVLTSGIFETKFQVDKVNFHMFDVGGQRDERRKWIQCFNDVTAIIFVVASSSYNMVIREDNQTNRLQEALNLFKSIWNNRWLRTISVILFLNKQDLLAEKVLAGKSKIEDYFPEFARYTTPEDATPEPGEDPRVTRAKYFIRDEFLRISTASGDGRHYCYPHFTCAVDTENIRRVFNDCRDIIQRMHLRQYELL

As usually defined, the half-life is how long it takes for the measured level to halve. Turning to `CC[C@H](C)[C@@H]1NC(=O)[C@H](CC(C)C)NC(=O)[C@@H](Cc2ccc(O)cc2)NC(=O)CSC[C@@H](C(=O)NCC(N)=O)NC(=O)[C@@H]2CCCN2C(=O)[C@H](CC(C)C)NC(=O)[C@H](CC(N)=O)NC(=O)[C@H](Cc2ccccc2)NC(=O)[C@H](C)NC(=O)[C@H](Cc2c[nH]c3ccccc23)NC(=O)[C@H](CCC(N)=O)NC(=O)[C@H](CCCNC(=N)N)NC(=O)[C@H](Cc2ccccc2)NC(=O)[C@H]([C@@H](C)O)NC1=O` [GD20] ({CH2CO}-[dY]LITFRQWAFNLPCG-NH2; thioether N-14), the IC50 at Gαs/GDP and Gβγ(C68S) was 18.4 ± 2 nM; on Gαs it was 1150 ± 160 nM; on long isoform of Gαs, 1320 ± 170 nM. In addition, the Kd on Gαs/GDP amounted to 31.4 ± 0.7 nM. The half-life at 10 μM was above 142 h in data set [1] and 16.4 to 27.1 h in the data set “Plasma stability assay”.
